The source of these data is patent US20110152267A1, “Compositions and Methods for Treating Hyperproliferative Disorders” (Texas Tech University System, priority 2009, published 2011).

Assay [1] deals with COG-LL-317 Acute Lymphoblastic Leukemia (ALL) cancer cell line. In words: DIMSCAN cytotoxicity dose-response with fenretinide (Examples A, FIGS. 5, 11, 17). It counts as cell-based, human. The following applies: 5% oxygen, at one or more doses, +96 hrs. The method, then:
Cytotoxicity Assay: Cytotoxicity in cell lines was determined using a fluorescence-based assay employing digital imaging microscopy (DIMSCAN)(after Fragala, et al, Mol Cancer Ther, 6:886-897, 2007). DIMSCAN quantitates viable cells which selectively accumulate fluorescein diacetate and is capable of measuring cytotoxicity over a 4-5 log dynamic range by quantifying total fluorescence per well (which is proportional to viable, clonogenic cells) after eliminating background fluorescence using digital thresholding and eosin Y quenching. Briefly, cell lines were seeded into 96-well plates in 100 µL of complete culture medium (10-20% serum) per well. Cells were incubated overnight in 2%, 5% or 20% oxygen (room air) prior to addition of drugs in […] volumes of complete medium to various final drug concentrations in replicates of 12 wells per concentration. In assays employing D-threo-PPMP, PPMP was employed at a fixed, minimally-toxic, final concentration of 10 μM in each well. Control wells received ethanol (final concentration=0.12%-0.20%) in complete medium equivalent to the maximum final ethanol concentration of drug-treated wells. Plates were incubated at various oxygen concentrations to simulate physiological hypoxia (i.e., 2% oxygen=typical solid tumor oxygen levels; 5%=bone marrow oxygen levels for leukemias; 20% room air=supraphysiological oxygen for comparison with typical laboratory culture conditions). Plates were assayed at 3-4 days after initiating drug exposure depending on the growth properties of each cell line, to allow for maximum cell death and outgrowth of surviving cells. To measure cytotoxicity, FDA (stock solution of 1 mg/ml in DMSO) was added, in 50 µL of complete medium per well, to a final concentration of 10 µg/ml. The plates were incubated for an additional 15-30 minutes at 37 C and then 30 µL of eosin Y (0.5% in normal saline) was added per well. Total fluorescence of each well was then measured using digital imaging microscopy. […]

The subject of assay [2] is MCF-7 breast adenocarcinoma cell line. In words: DIMSCAN cytotoxicity, fenretinide + L-threo-sphinganines 3:1 (Example B14). The class given is cell-based, human. The following applies: 96 h. The method, then:
(§1) Cytotoxicity Assay—Once again, cytotoxicity is determined using the DIMSCAN assay system (R. Proffitt et al., Cytometry 24, 204-213 (1996); T. Frgala et al., Mol Cancer Ther. 6:886-97, 2007). The system employs digital imaging microscopy to quantify viable cells, which selectively accumulate fluorescein diacetate to become brightly fluorescent. The system is capable of measuring cytotoxicity over a 4-5 log dynamic range by quenching the residual fluorescence of dead and dying cells with eosin Y and quantifying the total fluorescence of viable cells using digital thresholding. Measured fluorescence is directly proportionate to the number of viable cells. A comparison of the total fluorescence of a drug-treated cell population to the fluorescence of a similar number of untreated cells yields a survival fraction. In brief, 2000 to 10,000 cells/well (depending on size and growth rates) are replicate plated into 60 wells of a 96-well tissue culture plate in 0.1 mL of whole medium and allowed to attach overnight. Drug(s) are then added in 0.05 mL of whole medium to the final concentrations indicated. Drugs (fenretinide, and various chain length L-threo-sphinganines) were tested both as single agents and in a 3:1 ratio of fenretinide:sphinganine. C18-L-threo-sphinganine, or “safingol,” was also tested and results shown for reference. There are 12 wells treated per drug concentration. Twelve wells receive drug vehicle-only to the appropriate final concentration and serve as controls for the plate. Cells are incubated for 96 hours at 37° C. in ambient air with 5% CO2. Fluorescein diacetate is then added to each well in 0.05 mL media to a final concentration of 8 microgram/mL. Cells are incubated for a further 15 minutes at 37° C. and 0.03 mL of 0.5% eosin Y is added to each well. Total fluorescence of viable cells is then measured by digital imaging microscopy. Results were graphed as the ratio of the fluoresecence of drug-treated wells to non-drug treated control wells (i.e., Survival Fraction). All tests were performed at least twice. Representative results are shown.
(§2) The Combination Index (CI) is a term to describe mathematical modeling of the pharmacologic effects on cytotoxicity (cell death) of two drugs in combination based. Cytotoxic “synergy” is defined as a cell death affect which is greater than would be expected from a simple product of the single agent cytotoxicities alone (i.e. an “additive” effect). By Chou-Talalay analysis, a CI<0.9 on a Fraction Affected (“Fa”, i.e. fraction of cells killed) indicates synergy, with smaller numbers indicating greater synergy; a CI of 0.9-1.1 signifies an additive or near-additive effect; and a CI>1.1 means the drug combination is antagonistic.
Fenretinide and L-threo-sphinganines tested in human breast adenocarcinoma (breast cancer) cell lines, MCF-7 and MDA-MB-231.

Assay [3] deals with HT-29 colon cancer cell line. Nature of the assay: DIMSCAN cytotoxicity dose-response with fenretinide, with or without D-threo-PPMP (Examples A, FIGS. 4, 10, 15, 21-23). It counts as cell-based, human. The following applies: +96 hrs; for C.I. of D-threo-PPMP with fenretinide+L-threo-sphinganine (three drug combination): D-threo-PPMP fixed 10 uM, at most doses; for C.I. (Combination Index) with fenretinide: at one or more doses. The method, then:
Cytotoxicity Assay: Cytotoxicity in cell lines was determined using a fluorescence-based assay employing digital imaging microscopy (DIMSCAN)(after Fragala, et al, Mol Cancer Ther, 6:886-897, 2007). DIMSCAN quantitates viable cells which selectively accumulate fluorescein diacetate and is capable of measuring cytotoxicity over a 4-5 log dynamic range by quantifying total fluorescence per well (which is proportional to viable, clonogenic cells) after eliminating background fluorescence using digital thresholding and eosin Y quenching. Briefly, cell lines were seeded into 96-well plates in 100 µL of complete culture medium (10-20% serum) per well. Cells were incubated overnight in 2%, 5% or 20% oxygen (room air) prior to addition of drugs in […] volumes of complete medium to various final drug concentrations in replicates of 12 wells per concentration. In assays employing D-threo-PPMP, PPMP was employed at a fixed, minimally-toxic, final concentration of 10 μM in each well. Control wells received ethanol (final concentration=0.12%-0.20%) in complete medium equivalent to the maximum final ethanol concentration of drug-treated wells. Plates were incubated at various oxygen concentrations to simulate physiological hypoxia (i.e., 2% oxygen=typical solid tumor oxygen levels; 5%=bone marrow oxygen levels for leukemias; 20% room air=supraphysiological oxygen for comparison with typical laboratory culture conditions). Plates were assayed at 3-4 days after initiating drug exposure depending on the growth properties of each cell line, to allow for maximum cell death and outgrowth of surviving cells. To measure cytotoxicity, FDA (stock solution of 1 mg/ml in DMSO) was added, in 50 µL of complete medium per well, to a final concentration of 10 µg/ml. The plates were incubated for an additional 15-30 minutes at 37 C and then 30 µL of eosin Y (0.5% in normal saline) was added per well. Total fluorescence of each well was then measured using digital imaging microscopy.
FIGS. 1 to 26 illustrate the effect (Examples A1 through A26) of the claimed invention and were carried out using the procedures disclosed herein.

Assay [4] has as its system CRL-2091 normal human fibroblast cell line. Nature of the assay: DIMSCAN cytotoxicity, fenretinide + L-threo-sphinganines 3:1 (Example B1). It counts as cell-based. The conditions noted are these: CRL-2091, 20% O2, 96 h. The method, then: as §1, §2
(§3) Fenretinide and L-threo-sphinganines tested in normal human fibroblast (normal skin cell) cell lines, CRL-2091 and CRL-2076.

Assay [5] has as its system CRL-2076 normal human fibroblast cell line. The assay is described as above. The conditions noted are these: CRL-2076, 20% O2, 96 h. The class given is cell-based. As to the method: as §1, §2, §3
The test system of assay [6] is CHLA-266 primitive neuroectodermal tumor (PNET) cell line. In words: DIMSCAN cytotoxicity, fenretinide + L-threo-sphinganines 3:1 (Example B9). It counts as cell-based, human. The conditions noted are these: 96 h. The method, then: as §1, §2
Fenretinide and L-threo-sphinganines tested in human primitive neuroectodermal tumor (PNET) (brain cancer) cell line, CHLA-266.

Setting [7] is: 4-HPR 1.5 μM + L-threo-sphinganine 0.5 μM.
The mark [8] stands for this setting: 4-HPR 3 μM + L-threo-sphinganine 1 μM.
The mark [9] stands for this setting: 4-HPR 6 μM + L-threo-sphinganine 2 μM.
Where [10] appears, read: 4-HPR 9 μM + L-threo-sphinganine 3 μM.

Regarding `CCCCCCCCCCCCCCCCC[C@H](O)[C@@H](N)CO` [C20, (2S,3S)-2-amino-1,3-icosanediol], the “C.I. (Combination Index) with fenretinide” value (shortened to “C.I. (Combination Index)”) in assay [1] and in assay [3] (oxygen not stated) was less than 1 throughout. Moreover, the “CI (Combination Index)” value in assay [2] (setting [7]) is recorded as 0.8; in assay [2] (setting [8]), 0.4; in assay [2] (setting [9]), 0.3; in assay [2] (setting [10]), 0.1. Moreover, the “Fa (fraction affected)” value was 0.287 in assay [2] (setting [7]), 0.852 in assay [2] (setting [8]), 0.971 in assay [2] (setting [9]) and 0.998 in assay [2] (setting [10]). The “C.I. of D-threo-PPMP with fenretinide+L-threo-sphinganine (three drug combination)” value (“C.I. of D-threo-PPMP” below) in assay [3] (2% oxygen) is listed as less than 1.
Take `CCCCCCCCCCCCCC[C@H](O)[C@@H](N)CO` [C17, (2S,3S)-2-amino-1,3-heptadecanediol]: the “CI (Combination Index)” value in assay [4] (setting [7]), in assay [4] (setting [8]), in assay [4] (setting [9]), in assay [4] (setting [10]), in assay [5] (setting [7]) and in assay [5] (setting [8]) was more than 1 each time. Also, the “CI (Combination Index)” value in assay [5] (setting [9]) was more than 1; in assay [5] (setting [10]), more than 1; in assay [6] (setting [7]), 0.5; in assay [6] (setting [8]) it was 0.5; in assay [6] (setting [9]), 0.5; in assay [6] (setting [10]), 0.7. Also, the “CI (Combination Index)” value was found to be 1.3 in assay [2] (setting [7]), 0.7 in assay [2] (setting [8]), 0.4 in assay [2] (setting [9]) and 0.4 in assay [2] (setting [10]). The “Fa (fraction affected)” value in assay [4] (setting [7]) is 0.13; in assay [4] (setting [8]), 0.25; in assay [4] (setting [9]) it was 0.13; in assay [4] (setting [10]) it was 0.62; in assay [5] (setting [7]), 0.05; in assay [5] (setting [8]) it was 0.04. Besides, the “Fa (fraction affected)” value came to 0.09 in assay [5] (setting [9]); 0.15 in assay [5] (setting [10]); 0.502 in assay [6] (setting [7]); 0.913 in assay [6] (setting [8]); 0.990 in assay [6] (setting [9]); 0.989 in assay [6] (setting [10]). Moreover, the “Fa (fraction affected)” value was determined as 0.112 in assay [2] (setting [7]), 0.661 in assay [2] (setting [8]), 0.974 in assay [2] (setting [9]) and 0.993 in assay [2] (setting [10]). In addition, the “C.I. (Combination Index)” value in assay [1] and in assay [3] (2% oxygen) was less than 1 throughout. For the same compound, in assay [3] (20% oxygen), the “C.I. of D-threo-PPMP” value is recorded as less than 1.
With `CCCCCCCCCCCCCCCC[C@H](O)[C@@H](N)CO` [C19, (2S,3S)-2-amino-1,3-nonadecanediol], the “C.I. (Combination Index)” value in assay [1] and in assay [3] (oxygen not stated) was less than 1 in each case. Besides, the “CI (Combination Index)” value in assay [2] (setting [7]) came out at 1.2; in assay [2] (setting [8]) it was 0.8; in assay [2] (setting [9]), 0.8; in assay [2] (setting [10]), 0.9. In addition, the “Fa (fraction affected)” value in assay [2] (setting [7]) worked out at 0.138; in assay [2] (setting [8]), 0.736; in assay [2] (setting [9]), 0.965; in assay [2] (setting [10]) it was 0.991. Also, the “C.I. of D-threo-PPMP” value in assay [3] (20% oxygen) is on record as less than 1.
